Key:
HSV-1 = experiment: Inhibition of HSV-1 viral replication (virus yield reduction assay, Vero cells); type: cell-based, herpes simplex virus type-1; settings: 14-16 hours
Procedure: (§1) Compounds of the formulas II and III of the present invention are evaluated in an assay to measure the inhibition of HSV-1 viral replication in the presence of drug over a 14-16 hour period. The assay is discussed in detail by Pritchard, M. N. et al. "A Microliter Virus Yield Reduction Assay for the Evaluation of Antiviral Compounds Against Human Cytomegalovirus and Herpes Simplex Virus", J. Virol. Meth., Vol. 28, pp 101-106 (1990). Briefly, 80% confluent monolayers of Vero cells in 24 well plates are infected with low multiplicities of HSV-1 (MOI=0.001). After an absorption period of 1 hour at 37° C., the monolayers are rinsed with culture media and aliquots of compounds diluted into tissue culture media are added for 14-16 hours at 37° C. in a CO2 atmosphere. The growth media is removed and 1 ml of fresh media is added to each well and plates are placed at -70° C. After a 1-5 day storage period the plates are rapidly thawed, samples are collected on ice and titrated on fresh Vero cell monolayers. Viral plaques are stained with 0.1% crystal violet in 20% alcohol for 10 minutes and are counted. Data are calculated to reflect the percentage of inhibition at indicated concentration relative to infected, non-drug treated controls.
(§2) In the Tables, the sign "+++" refers to >90% inhibition at the indicated concentration. The sign "++" refers to >50% inhibition at the indicated concentration. The sign "+" refers to <50% inhibition at the indicated concentration. The sign "-" refers that no inhibitory activity is observed at the indicated concentration. A blank cell means the datum is not available.

VZV = experiment: Inhibition of VZV replication (plaque reduction, HFF cells); type: cell-based, varicella zoster virus; settings: five days
Procedure: Antiviral activity against VZV are evaluated in an assay to measure the reduction of viral replication in the number viral plaques formed over five days of incubation in the presence of compounds of the present invention. Aliquots of VZV are added for 90 minutes to 24 well plates having HFF cells at 80% confluence to yield approximately 25 plaques for media treated wells. The plates are flicked and dilutions of compounds in tissue culture media at 2 time strength are added (0.5 ml per well). Immediately following the addition of drug 0.5 ml of 1.0% agarose is added to the wells and the plates are gently tapped to aid mixing. This final concentration of agarose (0.5%) is […] to solidify at 37° C. and serves as a semi solid overlay medium. Plates are undisturbed for five days. On day 5 the plates are examined microscopically for toxicity and plaques are counted using low power microscopy.
as §2

HSV-2 = experiment: Inhibition of HSV-2 viral replication (substantially same assay as HSV-1); type: cell-based, herpes simplex virus type-2; settings: 14-16 hours
Procedure: as §1
Compounds of the formulas II and III of the present invention are also evaluated in substantially the same assay as described above to measure the inhibition of HSV-2 viral replication.
as §2

SMILES | % Inhibition Against HSV-1 Viral Replication, 5 μm (HSV-1) | % Inhibition Against HSV-1 Viral Replication, 30 μm (HSV-1) | % Inhibition Against VZV Viral Replication, 2 μm (VZV) | % Inhibition Against HSV-2 Viral Replication, 1 μm (HSV-2) | % Inhibition Against HSV-2 Viral Replication, 10 μm (HSV-2) | % Inhibition Against VZV Viral Replication, 10 μm (VZV; 10 μm)
Cc1ccc(NC(=S)Nc2ccc(Cl)cc2)cc1NC(=S)Nc1ccc(Cl)cc1 [Example 1, N,N"-(4-methyl-1,3-phenylene)bis[N'-(4-chlorophenyl)thiourea]] | - (no inhibitory activity is observed at the indicated concentration) | + (<50% inhibition at the indicated concentration) | – | – | – | –
COc1ccc(NC(=O)Nc2ccc(Cl)cc2)cc1NC(=O)Nc1ccc(Cl)cc1 [Example 3, N,N"-(4-methoxy-1,3-phenylene)bis[N'-(4-chlorophenyl)urea]] | + (<50% inhibition at the indicated concentration) | + (<50% inhibition at the indicated concentration) | – | – | – | –
COc1ccc(NC(=O)Nc2ccc(C)cc2)cc1NC(=O)Nc1ccc(C)cc1 [Example 4, N,N"-(4-methoxy-1,3-phenylene)bis[N'-(p-tolyl)urea]] | + (<50% inhibition at the indicated concentration) | + (<50% inhibition at the indicated concentration) | – | – | – | –
COc1ccc(NC(=S)Nc2ccc(Cl)cc2)cc1NC(=S)Nc1ccc(Cl)cc1 [Example 6, N,N"-(4-methoxy-1,3-phenylene)bis[N'-(4-chlorophenyl)thiourea]] | - (no inhibitory activity is observed at the indicated concentration) | + (<50% inhibition at the indicated concentration) | – | – | – | –
COc1cccc(NS(=O)(=O)c2ccc(Oc3ccc(S(=O)(=O)Nc4cccc(OC)c4)cc3)cc2)c1 [Example 9, bis[N-(3-methoxyphenyl)aminosulfonyl](oxydi-4,1-phenylene)] | + (<50% inhibition at the indicated concentration) | +++ (>90% inhibition at the indicated concentration) | – | – | – | –
Cc1ccc(NS(=O)(=O)c2cccc(S(=O)(=O)Nc3ccc(C)cc3)c2)cc1 [Example 10, N,N"-(1,3-phenylene)bis[N-(p-tolyl)aminosulfonyl]] | + (<50% inhibition at the indicated concentration) | ++ (>50% inhibition at the indicated concentration) | – | – | – | –
Cc1cccc(NS(=O)(=O)c2ccc(Oc3ccc(S(=O)(=O)Nc4cccc(C)c4)cc3)cc2)c1 [Example 11, bis[N-(3-methylphenyl)aminosulfonyl](oxydi-4,1-phenylene)] | - (no inhibitory activity is observed at the indicated concentration) | ++ (>50% inhibition at the indicated concentration) | – | – | – | –
N=C(Nc1ccc(Cc2ccc(NC(=N)c3ccccc3)cc2)cc1)c1ccccc1 [Example 13, N,N"-(methylenedi-4,1-phenylene)bis [benzenecarboximidamide]] | + (<50% inhibition at the indicated concentration) | +++ (>90% inhibition at the indicated concentration) | + (<50% inhibition at the indicated concentration) | + (<50% inhibition at the indicated concentration) | +++ (>90% inhibition at the indicated concentration) | –
S=C(NCCc1ccccc1)Nc1ccc(Oc2ccc(NC(=S)NCCc3ccccc3)cc2)cc1 [Example 15, N,N"-(oxydi-4,1-phenylene)bis[N'-(2-phenylethyl)thiourea]] | + (<50% inhibition at the indicated concentration) | + (<50% inhibition at the indicated concentration) | +++ (>90% inhibition at the indicated concentration) | + (<50% inhibition at the indicated concentration) | + (<50% inhibition at the indicated concentration) | –
O=C(Nc1ccc(Oc2ccc(NC(=O)c3ccco3)cc2)cc1)c1ccco1 [Example 16, N,N"-(oxydi-4,1-phenylene)bis(2-furancarboxamide)] | + (<50% inhibition at the indicated concentration) | ++ (>50% inhibition at the indicated concentration) | – | – | – | –
O=S(=O)(c1ccc(OCc2ccc(Cl)cc2)cc1)c1ccc(OCc2ccc(Cl)cc2)cc1 [Example 17, bis(4-chlorobenzyloxy)(sulfonyldi-4,1-phenylene)] | + (<50% inhibition at the indicated concentration) | ++ (>50% inhibition at the indicated concentration) | ++ (>50% inhibition at the indicated concentration) | ++ (>50% inhibition at the indicated concentration) | ++ (>50% inhibition at the indicated concentration) | –
O=S(=O)(c1ccc(OCc2ccc(Br)cc2)cc1)c1ccc(OCc2ccc(Br)cc2)cc1 [Example 18, bis(4-bromobenzyloxy)(sulfonyldi-4,1-phenylene)] | + (<50% inhibition at the indicated concentration) | ++ (>50% inhibition at the indicated concentration) | – | – | – | +++ (>90% inhibition at the indicated concentration)
O=S(=O)(c1ccc(OCc2ccncc2)cc1)c1ccc(OCc2ccncc2)cc1 [Example 19, bis [(4-pyridyl)methoxy](sulfonyldi-4,1-phenylene)] | + (<50% inhibition at the indicated concentration) | + (<50% inhibition at the indicated concentration) | – | – | – | –
O=S(=O)(c1ccc(OCc2ccc(F)cc2)cc1)c1ccc(OCc2ccc(F)cc2)cc1 [Example 20, bis(4-fluorobenzyloxy)(sulfonyldi-4,1-phenylene)] | + (<50% inhibition at the indicated concentration) | ++ (>50% inhibition at the indicated concentration) | – | – | – | –
O=[N+]([O-])c1ccc(COc2ccc(S(=O)(=O)c3ccc(O)cc3)cc2)cc1 [Example 21, hydroxy(4-nitrobenzyloxy)(sulfonyldi-4,1-phenylene)] | - (no inhibitory activity is observed at the indicated concentration) | ++ (>50% inhibition at the indicated concentration) | – | – | – | –
O=S(=O)(c1ccc(O)cc1)c1ccc(OCc2ccc(Cl)cc2)cc1 [Example 22, (4-chlorobenzyloxy)hydroxy(sulfonyldi-4,1-phenylene)] | - (no inhibitory activity is observed at the indicated concentration) | ++ (>50% inhibition at the indicated concentration) | – | – | – | –
